Legend:
ERα [1] = biological target: T1, ERα (Homo sapiens, UniProt P03372); assay: ERE luciferase reporter gene assay in T47D-KBluc cells (target engagement); format: cell-based; parameters: T47D human breast cancer cells stably transfected with estrogen responsive element/promoter/luciferase reporter gene; host or cells: T47D-KBluc cells; conditions: 10% FBS, 24 hours, Table 3 cereblon centric PROTACs, read-out: ER-α Luciferase IC50
T1 sequence (P03372 1-595): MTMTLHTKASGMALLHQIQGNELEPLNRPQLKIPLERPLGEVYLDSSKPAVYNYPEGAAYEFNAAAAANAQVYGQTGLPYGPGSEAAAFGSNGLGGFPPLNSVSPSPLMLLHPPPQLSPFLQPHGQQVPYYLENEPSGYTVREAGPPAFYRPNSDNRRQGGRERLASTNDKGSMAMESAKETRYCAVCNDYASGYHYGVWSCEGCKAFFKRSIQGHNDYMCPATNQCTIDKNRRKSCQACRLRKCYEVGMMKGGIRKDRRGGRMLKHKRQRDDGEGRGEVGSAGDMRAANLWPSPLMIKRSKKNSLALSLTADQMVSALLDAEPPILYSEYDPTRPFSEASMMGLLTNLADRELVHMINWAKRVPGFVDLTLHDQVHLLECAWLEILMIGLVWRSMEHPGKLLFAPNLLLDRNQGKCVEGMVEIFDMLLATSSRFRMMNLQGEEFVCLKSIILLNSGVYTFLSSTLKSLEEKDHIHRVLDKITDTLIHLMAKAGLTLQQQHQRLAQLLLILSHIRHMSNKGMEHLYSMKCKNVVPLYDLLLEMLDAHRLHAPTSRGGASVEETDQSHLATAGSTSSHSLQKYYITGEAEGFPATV
Method in brief: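 PROTACs were tested at 12 concentrations from 300 nM down to 2 pM in 3-fold steps for 24 h on T47D-KBluc cells with a stable ERE-driven luciferase. Medium was RPMI with 10% FBS, measured at 10 pM estrogen. IC50 came from luminescence after lysis, in duplicate.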

ERα [2] = biological target: T1, ERα; assay: Estrogen receptor-alpha (ERα) degradation assay in MCF7 cells using In-Cell Western assay; format: cell-based; parameters: assessed for their activity in degrading ERα in MCF-7 cells via western blot; endogenous in cells; host or cells: MCF7 cells; conditions: ER-alpha degradation in MCF7 cells, 5 days of incubation
Method in brief: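 MCF7 cells treated 3 or 5 days at 37 °C with 11-point 3-fold dilutions from 1 μM final top. Fixed cells immunostained for ERα and tubulin, read by infrared imaging at 700/800 nm. ERα normalized to tubulin then to DMSO vehicle; DC50 and Dmax from 4-parameter curve fit.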

Row | SMILES | IC50 (ERα [1]) | DC50 (ERα [2]) | Dmax (ERα [2])
1 | O=C1CCC(N2Cc3nc(N4CCN(CC5CCN(c6ccc(Oc7c(-c8ccc(F)cc8)sc8cc(O)ccc78)cc6)CC5)CC4)ccc3C2=O)C(=O)N1 (stereo not drawn) [Compound 230, 3-[2-[4-[[1-[4-[2-(4-fluorophenyl)-6-hydroxy-benzothiophen-3-yl]oxyphenyl]-4-pipendyl]methyl]piperazin-1-yl]-5-oxo-7H-pyrrolo[3,4-b]pyridin-6-yl]piperidine-2,6-dione] | 1.1 nM | 1 to 10 nM | > 75%
2 | O=C1CCC(N2Cc3cc(N4CCN(CC5CCN(c6ccc(Oc7c(-c8ccc(Br)cc8)sc8cc(O)ccc78)cc6)CC5)CC4)ccc3C2=O)C(=O)N1 (stereo not drawn) [Compound 231, 3-[5-[4-[[1-[4-[2-(4-bromophenyl)-6-hydroxy-benzothiophen-3-yl]oxyphenyl]-4-piperidyl]methyl]piperazin-1-yl]-1-oxo-isoindolin-2-yl]piperidine-2,6-dione] | 7.1 nM | 1 to 10 nM | 50 to 75%
3 | O=C1CCC(N2Cc3cc(N4CCN(CC5CCN(c6ccc(Oc7c(-c8ccc(F)cc8)sc8cc(O)ccc78)cn6)CC5)CC4)ccc3C2=O)C(=O)N1 (stereo not drawn) [Compound 232, 3-[5-[4-[[1-[5-[2-(4-fluorophenyl)-6-hydroxy-benzothiophen-3-yl]oxy-2-pyridyl]-4-piperidyl]methyl]piperazin-1-yl]-1-oxo-isoindolin-2-yl]piperidine-2,6-dione] | 1.6 nM | < 1 nM | > 75%
4 | COc1ccc(-c2sc3cc(O)ccc3c2Oc2ccc(N3CCC(CN4CCN(c5ccc6c(c5)CN(C5CCC(=O)NC5=O)C6=O)CC4)CC3)cc2)cc1 (stereo not drawn) [Compound 234, 3-[5-[4-[[1-[4-[6-hydroxy-2-(4-methoxyphenyl)benzothiophen-3-yl]-oxyphenyl]-4-piperidyl]methyl]piperazin-1-yl]-1-oxo-isoindolin-2-yl]piperidine-2,6-dione] | 0.65 nM | < 1 nM | 50 to 75%
5 | O=C1CCC(N2Cc3nc(N4CCN(CC5CCN(c6ccc(Oc7c(-c8ccc(Br)cc8)sc8cc(O)ccc78)cc6)CC5)CC4)ccc3C2=O)C(=O)N1 (stereo not drawn) [Compound 235, 3-[2-[4-[[1-[4-[2-(4-bromophenyl)-6-hydroxy-benzothiophen-3-yl]oxyphenyl]-4-piperidyl]methyl]piperazin-1-yl]-5-oxo-7H-pyrrolo[3,4-b]pyridin-6-yl]piperidine-2,6-dione] | 6.9 nM | 1 to 10 nM | > 75%
6 | O=C1CCC(N2Cc3cc(N4CCN(CC5CCN(c6ccc(Oc7c(-c8ccc(Br)cc8)sc8cc(O)ccc78)cn6)CC5)CC4)ccc3C2=O)C(=O)N1 (stereo not drawn) [Compound 236, 3-[5-[4-[[1-[5-[2-(4-bromophenyl)-6-hydroxy-benzothiophen-3-yl]oxy-2-pyridyl]-4-piperidyl]methyl]piperazin-1-yl]-1-oxo-isoindolin--2-yl]piperidine-2,6-dione] | 4.9 nM | 1 to 10 nM | > 75%
7 | COc1ccc(-c2sc3cc(O)ccc3c2Oc2ccc(N3CCC(CN4CCN(c5ccc6c(c5)C(=O)N(C5CCC(=O)NC5=O)C6=O)CC4)CC3)cc2)cc1 (stereo not drawn) [Compound 237, 2-(2,6-dioxo-3-piperidyl)-5-[4-[[1-[4-[6-hydroxy-2-(4-methoxyphenyl)benzothiophen-3-yl]oxyphenyl]-4-piperidyl]methyl]piperazin-1-yl]isoindoline-1,3-dione] | 4.9 nM | 10 to 100 nM | > 75%
8 | O=C1CCC(N2Cc3cc(N4CCN(CC5CCN(c6ccc(Oc7c(-c8ccc(Br)cc8)sc8cc(O)ccc78)cc6F)CC5)CC4)ccc3C2=O)C(=O)N1 (stereo not drawn) [Compound 238, 3-[5-[4-[[1-[4-[2-(4-bromophenyl)-6-hydroxy-benzothiophen-3-yl]oxy-2-fluoro-phenyl]-4-piperidyl]methyl]piperazin-1-yl]-1-oxo-isoindolin-2-yl]piperidine-2,6-dione] | 10.9 nM | 10 to 100 nM | > 75%
9 | O=C1CCC(N2Cc3nc(N4CCN(CC5CCN(c6ccc(Oc7c(-c8ccc(Br)cc8)sc8cc(O)ccc78)cc6F)CC5)CC4)ccc3C2=O)C(=O)N1 (stereo not drawn) [Compound 239] | 13.5 nM | 10 to 100 nM | > 75%
10 | O=C1CCC(N2Cc3nc(N4CCN(CC5CCN(c6ccc(Oc7c(-c8ccc(O)cc8)sc8cc(O)ccc78)cc6)CC5)CC4)ccc3C2=O)C(=O)N1 (stereo not drawn) [Compound 243, 3-[2-[4-[[1-[4-[6-hydroxy-2-(4-hydroxyphenyl)benzothiophen-3-yl]oxyphenyl]-4-piperidyl]methyl]piperazin-1-yl]-5-oxo-7H-pyrrolo[3,4-b]pyridin-6-yl]piperidine-2,6-dione] | 0.18 nM | 1 to 10 nM | 50 to 75%
11 | O=C1CCC(N2Cc3cc(N4CCN(CC5CCN(c6ccc(Oc7c(-c8ccc(O)cc8)sc8cc(O)ccc78)cc6)CC5)CC4)ccc3C2=O)C(=O)N1 (stereo not drawn) [Compound 244, 3-[5-[4-[[1-[4-(6-hydroxy-2-(4-hydroxyphenyl)benzothiophen-3-yl]oxyphenyl]-4-piperidyl]methyl]piperazin-1-yl]-1-oxo-isoindolin-2-yl]piperidine-2,6-dione] | 0.18 nM | 1 to 10 nM | 50 to 75%
12 | O=C1CCC(N2C(=O)c3ccc(N4CCN(CC5CCN(c6ccc(Oc7c(-c8ccc(O)cc8)sc8cc(O)ccc78)cc6)CC5)CC4)cc3C2=O)C(=O)N1 (stereo not drawn) [Compound 245, 2-(2,6-dioxo-3-piperidyl)-5-[4-[[1-[4-[6-hydroxy-2-(4-hydroxyphenyl)benzothiophen-3-yl]oxyphenyl]-4-piperidyl]methyl]piperazin-1-yl]isoindoline-1,3-dione] | 0.53 nM | 10 to 100 nM | 50 to 75%

— US11384063B2, “Modulators of estrogen receptor proteolysis and associated methods of use” (Arvinas Operations, Inc., priority 2017, dated 2022)
